Assays:
[1] = Solubility by HPLC (external standard method) compared with agomelatine of form II; assay type: physicochemical
Method: Using an external standard method, the compounds of Examples 1, 2 and 3 are tested by HPLC and compared with agomelatine of form II. The results are presented in Table 5 in the form of % increase in solubility relative to the solubility of agomelatine of form II: […]

[2] = Stability under denaturing conditions in incubators, determined by DSC over 2 months; assay type: physicochemical
Method: Samples of the compounds of Examples 1, 2 and 3 are placed in incubators under denaturing conditions and the stability is determined by DSC measurements over 2 months.

With `COc1ccc2cccc(CCNC(C)=O)c2c1.O=S(=O)(O)c1cccc2c(S(=O)(=O)O)cccc12` [Compound of Example 1, Agomelatine/1,5-Naphthalenedisulphonic Acid (2/1) Complex] the “Solubility (increase versus agomelatine form II) in 0.1N HCl” value [1] was “+25%”, the “Solubility (increase versus agomelatine form II) in a buffer pH 6.8” value [1] was “+48%” and the “Solubility (increase versus agomelatine form II) in water” value [1] was “+18%”. For the same molecule, the Stability ([2]; 25° C., 60% RH, open bottle) was “stable”, the Stability ([2]; 50° C., closed bottle) was “stable” and the Stability ([2]; 70° C., closed bottle) was “stable”.
For `COc1ccc2cccc(CCNC(C)=O)c2c1.O.O=S(=O)(O)c1cccc2c(S(=O)(=O)O)cccc12` [Compound of Example 2, Agomelatine/1,5-Naphthalenedisulphonic Acid (2/1) Monohydrate Complex], the “Solubility (increase versus agomelatine form II) in 0.1N HCl” value [1] was “+75%”, the “Solubility (increase versus agomelatine form II) in a buffer pH 6.8” value [1] was “+57%” and the “Solubility (increase versus agomelatine form II) in water” value [1] was “+12%”. For the same molecule, the Stability ([2]; 25° C., 60% RH, open bottle) was “stable”, the Stability ([2]; 50° C., closed bottle) was “stable” and the Stability ([2]; 70° C., closed bottle) was “stable”.
For `COc1ccc2cccc(CCNC(C)=O)c2c1.COc1ccc2cccc(CCNC(C)=O)c2c1.O=S(=O)(O)c1ccccc1` [Compound of Example 3, Agomelatine/Benzenesulphonic Acid (2/1) Complex], the “Solubility (increase versus agomelatine form II) in 0.1N HCl” value [1] was “+32%”, the “Solubility (increase versus agomelatine form II) in a buffer pH 6.8” value [1] was “+46%” and the “Solubility (increase versus agomelatine form II) in water” value [1] was “+22%”. The Stability ([2]; 25° C., 60% RH, open bottle) was “stable”, the Stability ([2]; 50° C., closed bottle) was “stable” and the Stability ([2]; 70° C., closed bottle) was “stable”.

— patent US9573891B2, “Complexes of agomelatine and sulphonic acids, a process for their preparation and pharmaceutical compositions containing them” (LES LABORATOIRES SERVIER, priority 2013, dated 2017)
